Here are results for six compounds from patent US9815863B2, “Hydrogen bond forming fluoro ketolides for treating diseases” (priority 2010, dated 2017).

Bounds are passed on as bounds.

The test system of experiment [1] is Streptococcus pneumoniae Pen^R, Tel^1/^R, Mac^R. Description: MIC against streptococci clinical isolates (Table 3). The class given is cell-based. Conditions: S. pneumoniae Pen^R, 12 strains, constitutive ermB.
For experiment [2], the system named is Streptococcus pyogenes Tel^R, Mac^R. The description is as above. The format is cell-based. Conditions: S. pyogenes Tel^R, Mac^R; 9 strains (8 ermB, 1 ermA, constitutive).
Experiment [3] deals with Streptococcus pneumoniae Pen^S, Tel^S, Mac^S. The description is as above. The class given is cell-based. Conditions: 10 strains.
Experiment [4] deals with Streptococcus pyogenes Tel^S, Mac^S. The description is as above. Conditions: 10 strains. The format is cell-based.
For experiment [5], the system named is E. coli ribosomes (23S rRNA). Briefly: RNA footprinting (ribosome chemical probing), wild-type E. coli ribosomes. The format is binding. To be noted: 100 μM antibiotic; for Protection of A752 from DMS modification: E. coli ribosomes. As to the method:
(§1) Ribosome chemical probing. rRNA probing was done following standard protocols (Merryman, C., and H. F. Noller. 1998. Footprinting and modification-interference analysis of binding sites on RNA, p. 237-253. In C. W. J. Smith (ed.), RNA:Protein Interactions, A Practical Approach. Oxford University Press, Oxford), with minor modifications. Briefly, 200 nM ribosomes were incubated with 100 μM antibiotic in 50 μL of buffer B (80 mM HEPES-KOH [pH 7.8], 20 mM MgCl2, 100 mM NH4Cl, 1.5 mM dithiothreitol) for 10 min at 37° C., followed by 10 min at 20° C. Modifying reagents (dimethyl sulfate [DMS], kethoxal, or 1-cyclohexyl-3-(2-morpholinoethyl)carbodiimide metho p-toluene sulfonate [CMCT]) were added and the modification reaction was carried out for 10 min at 37° C. After quenching the reaction and ethanol precipitation, rRNA was extracted and the distribution of modified nucleotides was assessed by primer extension.
(§2) Interactions of CEM-101 with wild-type E. coli and S. aureus ribosomes in solution. […] 1987. Chloramphenicol, erythromycin, carbomycin and vernamycin B protect overlapping sites in the peptidyl transferase region of 23S ribosomal RNA. Biochimie 69:879-884). Also included in this study was a C3-cladinose cousin of CEM-101, CEM-103, which lacks the C2-linked fluorine atom.

The subject of experiment [6] is 2058-dimethylated ribosomes isolated from the S. aureus N315 strain. Briefly: RNA footprinting of A2058-dimethylated (Erm-modified) ribosomes from S. aureus N315. The class given is binding. To be noted: S. aureus N315 ribosomes dimethylated at A2058, drugs at 100 μM. As to the method:
as §1
Interaction of CEM-101 with S. aureus ribosomes dimethylated at A2058 by Erm-methyltransferase. Erm-methyltransferase modifies A2058 in 23S rRNA by consecutively adding two methyl groups to the exocyclic amino group of the adenine base. Such modification completely blocks binding of erythromycin and similar macrolides, whereas its effect on binding of ketolides is less clear (Douthwaite, S., L. H. Hansen, and P. Mauvais. 2000. Macrolide-ketolide inhibition of MLS-resistant ribosomes is improved by alternative drug interaction with domain R of 23S rRNA. Mol. Microbiol. 36:183-193; Liu, M., and S. Douthwaite. 2002. Activity of the ketolide telithromycin is refractory to Erm monomethylation of bacterial rRNA. Antimicrob. Agents Chemother. 46:1629-1633). Therefore, interaction of CEM-101 with the ribosomes isolated from a clinical S. aureus strain N315, which carries five chromosomal copies of constitutively expressed ermA gene present in the Tn554 transposon (Kuroda, M., T. Ohta, I. Uchiyama, T. Baba, H. Yuzawa, I. Kobayashi, L. Cui, A. Oguchi, K. Aoki, Y. Nagai, J. Lian, T. Ito, M. Kanamori, H. Matsumaru, A. Maruyama, H. Murakami, A. Hosoyama, Y. Mizutani-Ui, N. K. Takahashi, T. Sawano, R. Inoue, C. Kaito, K. Sekimizu, H. Hirakawa, S. Kuhara, S. Goto, J. Yabuzaki, M. Kanehisa, A. Yamashita, K. Oshima, K. Furuya, C. Yoshino, T. Shiba, M. Hattori, N. Ogasawara, H. Hayashi, and K. Hiramatsu. 2001. Whole genome sequencing of meticillin-resistant Staphylococcus aureacs. Lancet 357:1225-1240) was investigated.
Footprinting analysis was used to test interactions of ketolides (CEM-101 and telithromycin) and cladinose-containing macrolides (CEM-103 and erythromycin) with the 2058-dimethylated ribosomes isolated from the S. aureus N315 strain. Ribosomes were incubated with the drugs (present at 100 μM concentration) and probed by DMS modification. Because dimethylated A2058 blocks progression of reverse transcriptase along the RNA template, a strong reverse transcriptase stop is observed at A2058 on the primer extension gel (Vester, B., and S. Douthwaite. 1994. Domain V of 23S rRNA contains all the structural elements necessary for recognition by the ErmE methyltransferase. J. Bacteriol. 176:6999-7004; Zhong, P., Z. Cao, R. Hammond, Y. Chen, J. Beyer, V. D. Shortridge, L. Y. Phan, S. Pratt, J. Capobianco, K. A. Reich, R. K. Flamm, Y. S. Or, and L. Katz. 1999. Induction of ribosome methylation in MLS-resistant Streptococcus pneumoniae by macrolides and ketolides. Microb. Drug Resist. 5:183-188). Therefore, it is impossible to use footprinting to evaluate interactions of macrolides with this position in the S. aureus N315 ribosomes. […]

Experiment [7] deals with S. aureus ribosomes (23S rRNA). Description: RNA footprinting (ribosome chemical probing), wild-type S. aureus ribosomes. The format is binding. To be noted: 100 μM antibiotic; for Protection of A752 from DMS modification: S. aureus ribosomes. As to the method: as §1, §2
Experiment [8] has as its system S. aureus 024-11A/WT. Description: Conventional antibacterial screen. The format is cell-based.
Experiment [9] concerns S. pneumoniae 117-20B/WT. Briefly: Conventional antibacterial screen. The format is cell-based.
The test system of experiment [10] is E. coli ATCC 25922/WT. Description: Conventional antibacterial screen. The format is cell-based.
The subject of experiment [11] is S. pneumoniae 007-4589A/ermB. Briefly: Conventional antibacterial screen. The class given is cell-based.
For experiment [12], the system named is S. aureus BAA-977/ermA. Briefly: Conventional antibacterial screen. The format is cell-based.
Experiment [13] deals with S. aureus ATCC 29213/WT. Briefly: Conventional antibacterial screen. The class given is cell-based.
Experiment [14] has as its system S. pyogenes ATCC 19615. Briefly: Conventional antibacterial screen. The format is cell-based.
For experiment [15], the system named is M. luteus ATCC 9341/WT. Briefly: Conventional antibacterial screen. The format is cell-based.
The subject of experiment [16] is S. pneumoniae 120-1037B/-ermB/mefA. Description: Conventional antibacterial screen. The format is cell-based.
Experiment [17] deals with S. pneumoniae 014-4331A/mefA. Briefly: Conventional antibacterial screen. The format is cell-based.
The test system of experiment [18] is S. pyogenes 089-14217A/ermB. Briefly: Conventional antibacterial screen. The class given is cell-based.
Experiment [19] deals with S. aureus D-5/ermA. Description: Conventional antibacterial screen. The class given is cell-based.
The subject of experiment [20] is S. pneumoniae ATCC 49619/WT. Briefly: Conventional antibacterial screen. The format is cell-based.
For experiment [21], the system named is E. coli 122-5930A/WT. Description: Conventional antibacterial screen. The format is cell-based.
Experiment [22] relates to S. pyogenes 129-7129A/ermA. Briefly: Conventional antibacterial screen. The format is cell-based.
For experiment [23], the system named is bacterial protein synthesis (E. coli S30 extract). Briefly: E. coli cell-free transcription-translation (TnT) S30 system, firefly luciferase synthesis. To be noted: read-out: IC50 of inhibition of firefly luciferase synthesis, ribosomes 600 nM.

As a reminder, the MIC50 is the lowest concentration that inhibits either 50% of growth or 50% of the strains tested, depending on the study. The low end stands for greater potency, the high end for weaker potency. The term MIC90 denotes an inhibitory concentration at the 90% level, which refers to growth in some studies and to a panel of isolates in others. A lower MIC90 goes with higher susceptibility. With “11-N-[4-[4-(3-aminophenyl)[1,2,3]triazol-1-yl]butyl]-5-O-desosaminyl-6-O-methyl-3-oxo-erythronolide A 11,12-cyclic carbamate [CEM-Des-F]”, the MIC50 in experiment [1] is 4 µg/mL; in [2], 2 µg/mL; in experiment [3], 0.03 µg/mL; in [4], 0.03 µg/mL. Also, the MIC90 in experiment [1] was found to be 4 µg/mL; in experiment [2], 2 µg/mL; in [3], 0.03 µg/mL; in [4] it was 0.03 µg/mL.

Turning to “11-N-[4-[4-(3-aminophenyl)[1,2,3]triazol-1-yl]butyl]-6-O-methylerythromycin A 11,12-cyclic carbamate [CEM-103]”, the “Protection of A752 from DMS modification” value in experiment [5] and in [7] was “strongly protects” in each case. For the same compound, the “Protection of A2058 and A2059 in domain V of 23S rRNA from modification with DMS” value in experiment [5] (E. coli wild-type ribosomes) and in experiment [7] (S. aureus wild-type ribosomes) was “protect” in each case. Besides, in [6], the “Protection of A2059 from DMS modification (binding to Erm-modified ribosome)” value is recorded as “protection of A2059 from DMS modification”. The “Protection of G2505 from kethoxal modification” value in [6] is recorded as “partially protected”. Further, the “Protection of U2609 from modification with CMCT” value in experiment [6] was “fully protected”.

Regarding `CC[C@H]1OC(=O)[C@H](C)C(=O)[C@H](C)[C@@H](OC2O[C@H](C)C[C@H](N(C)C)[C@H]2O)[C@@](C)(OC)C[C@@H](C)C(=O)[C@H](C)[C@H]2N(CCCCn3cc(Cc4c[nH]c5ccccc45)nn3)C(=O)O[C@]12C` (stereo partly shown) [CEM-199, 5-O-desosaminyl-11-N-[4-[4-(indol-3-ylmethyl)[1,2,3]triazol-1-yl]butyl]-6-O-methyl-3-oxo-erythronolide A 11,12-cyclic carbamate], the Screening result in experiment [8] was found to be 0.5; in [9], 0.06; in [10], 16; in experiment [11], 0.12; in experiment [12] it was 0.5; in [13], 0.5. The Screening result in [14] is 0.06; in experiment [15], 0.06; in experiment [16], 0.5; in [17], 1; in [18], 1; in [19], more than 16. Further, the Screening result in experiment [20] was 0.06; in [21], 16; in [22], 0.12.

As for `CC[C@H]1OC(=O)[C@@](C)(F)C(=O)[C@H](C)[C@@H](OC2O[C@H](C)C[C@H](N(C)C)[C@H]2O)[C@@](C)(OC)C[C@@H](C)C(=O)[C@H](C)[C@H]2N(CCCCn3cc(Cc4c[nH]c5ccccc45)nn3)C(=O)O[C@]12C` (stereo partly shown) [CEM-219, 2-fluoro-5-O-desosaminyl-11-N-[4-[4-(indol-3-ylmethyl)[1,2,3]triazol-1-yl]butyl]-6-O-methyl-3-oxo-erythronolide A 11,12-cyclic carbamate], the Screening result was 0.5 in experiment [8]; “≦0.015” in experiment [9]; more than 16 in experiment [10]; “≦0.015” in experiment [11]; 0.25 in [12]; 0.25 in experiment [13]. Besides, the Screening result in experiment [14] is on record as “≦0.015”; in experiment [15] it was “≦0.015”; in experiment [16], 0.12; in experiment [17] it was 0.5; in [18], 0.5; in experiment [19] it was more than 16. The Screening result in [20] was “≦0.015”; in experiment [21] it was more than 16; in [22] it was “≦0.015”.

Usually IC50 stands for the midpoint of a concentration-inhibition curve. As to `CC[C@H]1OC(=O)[C@H](C)[C@@H](O[C@H]2C[C@@](C)(OC)[C@@H](O)[C@H](C)O2)[C@H](C)[C@@H](O[C@@H]2O[C@H](C)C[C@H](N(C)C)[C@H]2O)[C@](C)(O)C[C@@H](C)CN(C)[C@H](C)[C@@H](O)[C@]1(C)O` [azithromycin], the IC50 in [23] was found to be 300 nM.

In the case of `CC[C@H]1OC(=O)[C@H](C)C(=O)[C@H](C)[C@@H](O[C@@H]2O[C@H](C)C[C@H](N(C)C)[C@H]2O)[C@](C)(OC)C[C@@H](C)C(=O)[C@H](C)[C@H]2N(CCCCn3cnc(-c4cccnc4)c3)C(=O)O[C@]12C` [telithromycin], the “Protection of A752 from DMS modification” value in experiment [5] is “strongly protects”. The IC50 in [23] came to 500 nM. In addition, in experiment [6], the “Protection of A2059 from DMS modification (binding to Erm-modified ribosome)” value is reported as “protected A2059 but to a lesser extent than CEM-101 or CEM-103”, the “Protection of G2505 from kethoxal modification” value is listed as “notably weaker protection” and the “Protection of U2609 from modification with CMCT” value is given as “notably weaker protection”. For the same compound, the “Protection of A752 from DMS modification” value in experiment [7] is listed as “strongly protects”.
